Drawing on PubChem BioAssay (NCI), this text covers GI50 and TGI for 8 molecules.

Among the test systems are NCI/ADR-RES ovarian; PC-3 prostate; SF-295 CNS; HOP-62 NSCLC; LOX IMVI melanoma; HL-60(TB) leukemia; HS 578T breast; SF-539 CNS.
What all share (test): growth of human tumour cells (NCI), 48 h

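Briefly, cells in 96-well plates were exposed to five compound concentrations for 48 h, and endpoints were estimated by linear interpolation. Here, GI50 denotes the concentration required for 50% inhibition of growth. TGI is the concentration that stops growth completely.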

With `CCN1C(=O)N(CC)C2C1NN=c1s/c(=C\c3ccccc3Br)c(=O)n12` (stereo not given), the GI50 was 0.0228 µM with NCI/ADR-RES ovarian; 0.0383 µM in the experiment with PC-3 prostate; 0.0286 µM in the experiment with SF-295 CNS; 0.0485 µM with HOP-62 NSCLC; 0.0284 µM in the experiment with LOX IMVI melanoma; 0.0241 µM in the experiment with HL-60(TB) leukemia. In addition, the results for the GI50 in the experiment on HS 578T breast and in the experiment on SF-539 CNS were 0.0355 µM and 0.0242 µM, respectively. Further, the TGI in the experiment on NCI/ADR-RES ovarian was found to be 15.3 µM; with PC-3 prostate, 44.5 µM; in the experiment on SF-295 CNS, 15.1 µM; with HOP-62 NSCLC it was 20.4 µM; with LOX IMVI melanoma, 16.6 µM; with HL-60(TB) leukemia it was 0.0639 µM. For the same molecule, the TGI in the experiment with HS 578T breast was found to be 20.5 µM; in the experiment with SF-539 CNS, 0.382 µM.

Turning to `O=C(Nc1cccc(Nc2ncc(Br)c(NCCc3cnc[nH]3)n2)c1)N1CCCC1`, the GI50 in the experiment with NCI/ADR-RES ovarian is above 66.7 µM; with PC-3 prostate, 3.2 µM; in the experiment with SF-295 CNS it was 3.72 µM; in the experiment on HOP-62 NSCLC, 2.35 µM; in the experiment on LOX IMVI melanoma, 1.11 µM; with HL-60(TB) leukemia, 3.47 µM. Besides, the GI50 in the experiment on HS 578T breast is 0.747 µM; in the experiment on SF-539 CNS it was 0.897 µM. For the same molecule, the TGI is above 100 µM in the experiment on NCI/ADR-RES ovarian; 45.6 µM in the experiment on PC-3 prostate; 20.8 µM in the experiment with SF-295 CNS; 14.7 µM with HOP-62 NSCLC; 7.4 µM with LOX IMVI melanoma; 24.2 µM in the experiment on HL-60(TB) leukemia. Also, the figures for the TGI with HS 578T breast and in the experiment with SF-539 CNS were 4.1 µM and 9.17 µM, respectively.

Turning to `Cn1cncc1CC1COC(=O)C1C(O)c1ccccc1` (stereo not given), the TGI in the experiment on NCI/ADR-RES ovarian, in the experiment with PC-3 prostate, in the experiment with SF-295 CNS, in the experiment with HOP-62 NSCLC, in the experiment with LOX IMVI melanoma and with HL-60(TB) leukemia was above 100 µM in each case. Further, the TGI with HS 578T breast and with SF-539 CNS was above 100 µM each time.

On to `CC(C)(C)c1ccc(C(=O)Nc2sc3c(c2C(N)=O)CCC(=O)C3)cc1`, for which the GI50 is 1.47 µM in the experiment on NCI/ADR-RES ovarian; 0.188 µM in the experiment on PC-3 prostate; 1.21 µM in the experiment on SF-295 CNS; 2.38 µM in the experiment on HOP-62 NSCLC; 0.398 µM in the experiment on LOX IMVI melanoma; 0.481 µM in the experiment on HL-60(TB) leukemia. Further, the GI50 in the experiment on HS 578T breast is 1.11 µM; in the experiment on SF-539 CNS, 0.438 µM. Moreover, the TGI was 5.53 µM in the experiment with NCI/ADR-RES ovarian; 1.48 µM in the experiment on PC-3 prostate; 2.73 µM in the experiment with SF-295 CNS; 6.62 µM in the experiment with HOP-62 NSCLC; 1.51 µM with LOX IMVI melanoma; 4.82 µM in the experiment with HL-60(TB) leukemia. Also, the TGI with HS 578T breast came out at 5.33 µM; with SF-539 CNS, 1.61 µM.

Turning to `CC1(C)CCC[C@]2(C)[C@@H](C=O)C(C=O)=CC[C@@H]12`, the TGI in the experiment on NCI/ADR-RES ovarian was 40.8 µM; with PC-3 prostate it was above 100 µM; with SF-295 CNS, 75.1 µM; in the experiment on HOP-62 NSCLC, above 100 µM; with LOX IMVI melanoma, 42.2 µM; with HL-60(TB) leukemia it was 36.5 µM. Also, the TGI with HS 578T breast was above 100 µM; in the experiment with SF-539 CNS it was 53.3 µM.

`BrCc1ccc(CBr)cc1`: the GI50 in the experiment on NCI/ADR-RES ovarian was 6.95 µM; in the experiment on PC-3 prostate it was 5.3 µM; in the experiment on SF-295 CNS it was 5.12 µM; in the experiment on HOP-62 NSCLC, 4.23 µM; in the experiment on LOX IMVI melanoma, 4.51 µM; with HL-60(TB) leukemia, 7.6 µM. In addition, the GI50 with HS 578T breast is 21.6 µM; in the experiment with SF-539 CNS, 3.02 µM. In addition, the TGI was above 21.1 µM in the experiment on NCI/ADR-RES ovarian; 15.8 µM in the experiment on SF-295 CNS; 9.68 µM in the experiment with HOP-62 NSCLC; above 100 µM in the experiment on LOX IMVI melanoma; 69 µM in the experiment with HS 578T breast; 11.8 µM with SF-539 CNS.

`CC1(C)N=C(N)N=C(N)N1c1ccc(CCCCc2ccc(S(=O)(=O)F)cc2)c(Cl)c1`: the GI50 was 45 µM in the experiment on NCI/ADR-RES ovarian; 0.0493 µM in the experiment on PC-3 prostate; 0.636 µM with SF-295 CNS; 1.45 µM in the experiment with HOP-62 NSCLC; 0.0723 µM in the experiment with LOX IMVI melanoma; 0.181 µM in the experiment on HL-60(TB) leukemia. The GI50 in the experiment with HS 578T breast is 9.27 µM; in the experiment on SF-539 CNS, 0.391 µM. For the same molecule, the TGI was above 100 µM in the experiment with NCI/ADR-RES ovarian; 15.9 µM with PC-3 prostate; 18.2 µM in the experiment with SF-295 CNS; 23.7 µM with HOP-62 NSCLC; 15.3 µM in the experiment with LOX IMVI melanoma; 23.6 µM in the experiment on HL-60(TB) leukemia. For the same molecule, the TGI in the experiment with HS 578T breast was 32.1 µM; in the experiment with SF-539 CNS, 13.9 µM.

As for `CN1CCN(CC(O)COc2c(Br)c(Br)c(Br)c3c2OC(C)(C)C3)CC1` (stereo not given), the GI50 was 15.9 µM in the experiment with NCI/ADR-RES ovarian; 5.06 µM in the experiment on PC-3 prostate; 1.79 µM in the experiment with SF-295 CNS; 4.26 µM with HOP-62 NSCLC; 1.92 µM in the experiment on LOX IMVI melanoma; 4.57 µM with HL-60(TB) leukemia. Besides, the results for the GI50 in the experiment on HS 578T breast and in the experiment on SF-539 CNS were 10.4 µM and 3.21 µM, respectively. The TGI with NCI/ADR-RES ovarian stood at 49 µM; in the experiment on PC-3 prostate, 21.1 µM; in the experiment on SF-295 CNS, 3.77 µM; in the experiment with HOP-62 NSCLC, 25.1 µM; in the experiment on LOX IMVI melanoma it was 3.36 µM; with HL-60(TB) leukemia, 18 µM. Also, the TGI in the experiment with HS 578T breast worked out at 42.7 µM; in the experiment with SF-539 CNS, 13.5 µM.
